These results are taken from a melting point compilation (Tetko et al.; mined from patent text by program, amines drawn as free bases though some values may be those of a salt).

Some results are limits rather than exact numbers.

`c1ccc(CN2CCC3(CC2)Oc2ccccc2Cn2cccc23)cc1` had a melting point of 109 to 111 °C. On to `COc1ccc(C(=O)N2CCN(C(=O)C3=Cc4cc(OC)c(OC)cc4CC3)CC2)cc1OC`, for which the melting point was 190 to 191 °C. Compound `O=C(c1ccc(-c2cccc3ccccc23)cc1)N1Cc2cccn2Cc2ccccc21` gave a melting point of 170 to 171 °C. For the compound `CS(=O)(=O)c1cc(C(=O)O)ccc1Oc1ccc(C(O)CSc2ccccn2)cc1` (configuration not stated), the melting point was 169 to 174 °C. `Nc1ncccc1-c1nc2cc(C3CCCC3)cnc2n1-c1ccc(CNC(=O)c2ccccc2)cc1` gave a melting point of 210 to 211 °C. The compound `CC1(C)OC(c2ccc(S(C)(=O)=O)cc2)=C(c2ccc(F)c(Cl)c2)C1=O` gave a melting point of 162 to 164 °C. As for `Nc1nc2ccccc2c2c1ncn2CCCCNC(=O)c1cccnc1`, the melting point was 189 to 190 °C. In turn, `CS(=O)(=O)c1ccc(CC(=O)c2c(O)c3cccnc3n(-c3ccccc3)c2=O)cc1` came in with a melting point of 260 to 262 °C.

Compound `OC[C@@H]1CC[C@H]2CN(c3ncc(F)cn3)CCN2C1` displayed a melting point of 148 to 150 °C. Consider `CC(Cn1nnc2ccccc21)(NC(=O)OC1C2CC3CC(C2)CC1C3)C(=O)NCCc1ccccc1` (configuration not stated), for which the melting point lay in the range of 180 to 185 °C. `COC(=O)C(COC(C)=O)C(=O)OC(C)(C)C` (configuration not stated) returned a melting point of 61 to 62 °C. `Cc1c(C(=O)Nc2ccc(N3CCN(CCOCCO)CC3)c(C#N)c2)cnn1-c1ccc(Cl)cc1` came in with a melting point of 196 °C.

For the compound `CN(C(=O)OC(C)(C)C)C1C2CCC1CN(CC(O)COc1ccc(C#N)cc1)C2` (configuration not stated), the melting point fell in the range of 109 to 112 °C. In turn, `COC(=O)c1ccc(CN2C(=O)C(CCO)Oc3ccccc32)cc1` (configuration not stated) showed a melting point of 94 to 95 °C.

Regarding `CN(C)CC1CCCCN1CCCNC(=O)N1c2ccccc2C(=O)Nc2cccnc21` (configuration not stated), the melting point lay within 160 to 162 °C. On to `CN1Cc2c(-c3nc(CN4C(=O)c5ccccc5C4=O)no3)ncn2-c2cccc(Cl)c2C1=O`, for which the melting point was in the range of 237 to 239 °C. Compound `O=C(N[C@H]1CC[C@H](CCN2CCN(c3nccc4c3OCC4)CC2)CC1)c1ccc(-c2cccnc2)cc1` gave a melting point of 235 °C. As to `O=S(=O)(NCc1ccncc1)c1ccc(I)cc1`, the melting point fell in the range of 174 to 176 °C.

`Nc1ncnc2ncn(CCO)c12` came in with a melting point of 132 to 133 °C. `CC(=O)SCC(C(=O)O)C(C)c1ccc(O)cc1` (configuration not stated) had a melting point of 48 °C. For the compound `CCC(C)S(=O)(=O)NN(CCC(=O)O)C(=O)c1ccc2nc(CCC3CCNCC3)[nH]c2c1` (configuration not stated), the melting point lay within 180 to 185 °C. Compound `CC(C)n1c(=O)n(C(=O)NCC2CCN(CC3(C(=O)O)CCCCC3)CC2)c2ccccc21` displayed a melting point of 151 °C.

Regarding `Fc1ccc(Cn2c(NC3CCN(CCNc4nccs4)CC3)nc3cncnc32)cc1`, the melting point amounted to 165 °C. In turn, `CCOC(=O)c1nnc2ccc(NC(=O)OCC(Cl)(Cl)Cl)cc2c1O` gave a melting point of 251 to 253 °C.

For the compound `CCCNON=C(C)C1=CCCN(C)C1`, the melting point was in the range of 78 to 79 °C. Then `COc1cc2c(cc1OCc1ccccc1)CCN(Cc1ccncc1)C2`, with 125 to 126 °C.

With `Cn1c(-c2cc(C(C)(C)C)c(O)c(C(C)(C)C)c2)cnc1S`, the melting point lay within 288 to 289 °C. Take `COc1ccc(-c2c(C(=O)CC(C)C)c(CBr)nc3cc(OC)c(OC)cc23)cc1OC`: the melting point was 159 to 161 °C. The compound `CNc1ccc(Cl)cc1` gave a melting point of 72 to 74 °C. Under `CC(=O)Nc1cccc(NC(C)=O)c1` stands 190 to 191 °C. `COc1ccc(C2C3=C(COC3=O)Nc3ccc4cn[nH]c4c32)cc1O` (configuration not stated): the melting point lay within 243 to 245 °C.

Regarding `COc1ccnc(CS(=O)c2nc3cc(Cl)c(Cl)cc3[nH]2)c1C` (configuration not stated), the melting point worked out at 173 °C. `CCOCCC(Cc1ccc(NC(=O)NC(=O)c2ccc(C#N)cc2)cc1)C(=O)OC(C)(C)C` (configuration not stated) showed a melting point of 144 to 145 °C. Under `Cn1cc(-c2cc(Oc3ccccc3)c(Cl)cc2F)c(=O)cc1C(F)(F)F` stands 159 to 161 °C; under `COc1ccc(NC(N)=O)c(C#N)c1OC`, 198 to 200 °C. Under `Nc1ccc(OC(F)(F)C(F)F)cc1[N+](=O)[O-]` stands 83.9 to 84.4 °C; under `CC(=O)c1ccc(C(=O)NCCOc2ccc3ccccc3c2)cc1`, 131 to 132 °C. `COC(=O)c1c(OC)cc(C=O)cc1OC` displayed a melting point of 113 to 114 °C. The compound `Cn1c2ccccc2c2c3ccccc3ccc21` displayed a melting point of 116 to 118 °C. As for `COc1ccc(N=C(C#Cc2ccccc2)N2CCN(Cc3ccccc3)CC2)cc1`, the melting point was found to be 104 °C. `CC(=O)NCCNc1ccc(C2=NNC(=O)CC2C)cc1[N+](=O)[O-]` (configuration not stated) returned a melting point of 222 °C. With `COC(=O)C(Cc1ccc(OCCc2nc(-c3ccccc3)oc2C)cc1)C(=O)NC(N)=O` (configuration not stated), the melting point fell in the range of 74.6 to 75.6 °C. Compound `N#Cc1ccc(NC2CCN(Cc3cccc(C(F)(F)F)c3)CC2)nc1` yielded a melting point of 112 °C. Compound `COC(c1ccccc1)n1cnc2c(-c3cccs3)nc(Cl)nc21` (configuration not stated) showed a melting point of 183 to 185 °C. Under `CCOC(=O)c1cc(-n2c(=O)c3c(n(COC)c2=O)CCC3)ccc1Cl` stands 103 to 106 °C; under `CCc1ccc(Oc2cnc(S)[nH]c2=O)cc1`, above 220 °C. Under `COc1ccc(C2(c3ccc(OC)cc3)C(Cl)(Cl)C23CCCCC3)cc1` stands 121 to 122 °C; under `NC(=O)c1ccc(-c2ccc(Cl)cc2)nc1`, 245 to 258 °C; under `CN(C)c1cc(NC(=O)c2ccccc2-c2ccc(C(F)(F)F)cc2)cnc1OCCCC1(C(=O)NCC(F)(F)F)c2ccccc2-c2ccccc21`, 140 to 141 °C. Compound `O=C(O)c1cn2c3c(c(F)c(F)cc3c1=O)OCC2` came in with a melting point above 300 °C. Regarding `Clc1ccc(-c2coc3c(Br)cccc23)cc1Cl`, the melting point lay in the range of 158 to 160 °C. The compound `COc1cc(NS(C)(=O)=O)c(I)cc1N` displayed a melting point of 110 to 112 °C. Regarding `Cc1cc(N)c(Cl)c(N)c1`, the melting point fell in the range of 114 to 116 °C. For the compound `N#CN(CCN1CCC(C(=O)c2ccc(F)cc2)CC1)C(=N)NCCN1CCC(C(=O)c2ccc(F)cc2)CC1`, the melting point was 152 to 156 °C. Turning to `C#CCn1c(=O)c2cc(Cl)ccc2c2ccc(Cl)cc21`, the melting point fell in the range of 248 to 250 °C.

In the case of `CCCC(C)(C(=O)N(C)C)n1cc(C)c(-c2ccccc2)n1` (configuration not stated), the melting point fell in the range of 90 to 92 °C. Take `NC1=NC(c2ccc(OC(F)(F)F)cc2)(c2ccc(F)c(-c3cncnc3)c2)C(=O)N1C(F)F` (configuration not stated): the melting point fell in the range of 82 to 94 °C. Then `O=C(Nc1cccc2c1C1CCCCN1C2=O)Nc1ncccc1Br` (configuration not stated), with 220 °C; and `COc1cc(Nc2c(C#N)cnc3cc(-c4ccc(CN5CCOCC5)s4)ccc23)c(Cl)cc1Cl`, with 188 °C; and `COC(=O)C1=C(C)NC(C)=C(C(=O)OCCCCCCOc2cc(-c3ccc4c(c3)OCO4)[nH]n2)C1c1cccc([N+](=O)[O-])c1` (configuration not stated), with 167 to 169 °C. On to `Cc1ccc(C(=O)N(CCCNC(=O)OC(C)(C)C)C(c2nc3snc(C)c3c(=O)n2Cc2ccccc2)C(C)C)cc1` (configuration not stated), for which the melting point was 70 to 71 °C. Turning to `CC(C)S(=O)(=O)NC[C@@H](C)c1ccc(-c2ccc3c(c2)CC(=O)N3)cc1`, the melting point was 170 to 171 °C.

Compound `CCc1n[nH]c(CCOc2ccc(S(C)(=O)=O)cc2)c1Oc1cc(C#N)cc(C#N)c1` registered a melting point of 88 to 90 °C. Take `CC(NC(=O)CBr)c1ccccc1` (configuration not stated): the melting point was 60 to 61 °C. `CC1(C)c2ccccc2S(=O)(=O)N1CCCCl` returned a melting point of 107 °C.

The compound `Cc1c(Br)cc(S(C)(=O)=O)c(C)c1Cl` had a melting point of 124 to 126 °C. For `CC(C)C[C@H](NC(=O)[C@H](NC(=O)OCc1ccccc1)C(C)C)C(=O)O`, the melting point was 134 to 136 °C. `CCOC(=O)CCc1c(OCCCCCCc2ccc(OC)cc2)ccc2c(=O)c3cc(C(=O)OC)ccc3oc12` yielded a melting point of 108 to 109 °C. As to `O=C1C(=Cc2ccc(Cl)cc2)CC23OC2C=CC=C13` (configuration not stated), the melting point lay in the range of 162 to 164 °C. As to `CCCCn1cccc1C(=O)N(C)C`, the melting point came to 132 °C.

`FC(F)c1nc2ccccc2n1-c1nc(NCc2ccncc2)nc(N2CCOCC2)n1` yielded a melting point of 188 to 190 °C. Under `Oc1ccc(-c2nc(-c3ccc(Sc4ccccc4)cc3)nc(-c3ccc(O)cc3O)n2)c(O)c1` stands above 250 °C; under `CC(C)Oc1cc([N+](=O)[O-])c(F)cc1C#N`, 116 to 118 °C. As for `O=[N+]([O-])c1ccccc1Oc1cc(Cl)cc(Cl)c1`, the melting point was in the range of 78 to 80 °C. Compound `COc1c(C)cnc(CS(=O)c2nc3c(C)c(OC)c(C)cc3[nH]2)c1C` (configuration not stated) registered a melting point of 137 °C.

In turn, `CCCN(Cc1ccc(-c2ccccc2-c2nc(=O)s[nH]2)cc1)c1nc2ccccc2cc1C(=O)OCC` gave a melting point of 124 to 125 °C.

Compound `COc1nc2c(S(=O)(=O)c3ccccc3)c(SC)nn2c(N2CCN(C)CC2)c1C` registered a melting point of 207 to 208 °C. Compound `CCOC(=O)Cn1cc(Cc2cccc([N+](=O)[O-])c2)c2ccccc21` yielded a melting point of 163 to 165 °C. Compound `N#Cc1cc(N(CC(=O)O)C(=O)c2cccn2-c2ccc(F)cc2)ccc1N1CCCCC1` gave a melting point of 117 to 120 °C. `COC(=O)C(=CNc1c(-c2ccccc2)csc1C(=O)O)SC` displayed a melting point of 90 to 92 °C.

The compound `O=C(OC1COC(OC(=O)c2ccccc2)CO1)c1ccccc1` (configuration not stated) showed a melting point of 187 to 189 °C. In turn, `CCCC1(CC(=O)OC)CCCc2c1[nH]c1cc(Br)ccc21` (configuration not stated) came in with a melting point of 198 °C. Compound `CCCCCCOc1ccc(-c2ccc(-c3ccc(CCCC)s3)c(F)c2)cc1` returned a melting point of 66 °C. Consider `CC(O)=C(C#N)C(=O)Oc1cccc(Cl)c1Cl`, for which the melting point lay in the range of 142 to 146 °C. As for `CC1CCCC(C)N1Cc1ccc2cc(NC(=O)c3ccc(-c4ccc(F)cc4)cc3)ccc2n1` (configuration not stated), the melting point lay in the range of 187 to 188 °C. As for `CCC(=O)N1c2ccccc2NC(=O)c2cscc21`, the melting point lay in the range of 222 to 224 °C. `COc1c(C2CCN(CCCCOc3ccc(-c4ccc(C#N)cc4)cc3)CC2)ccc2ccccc12` returned a melting point of 142 °C.
